“Also recorded” adds a separate entry of the source. Structures can show the parent of a compound that is named as a salt.
Columns and labels:
[1] = biological target: T1, recombinant human tau 4R2N (Homo sapiens (Human), UniProt P10636); assay: AlphaLisa Assay (ALA), primary screen for inhibition of tau oligomer formation; format: biochemical; conditions: tau target 300 nM, 4 hours room temperature, compound 0.098 uM-50 uM
From the text: (§1) Bacterial recombinant human tau 4R2N (the largest isoform of tau in the central nervous system, 441 amino acids in length, Seq. ID 1) constructs with either 6X-His or StrepII N-terminal epitope tags were purified from bacterial lysate using denaturing conditions to prepare tau in its monomeric form.
ALA Assay: AlphaLisa Assay (ALA) was used as a primary screen for identifying compounds that inhibit tau oligomer formation. It is a bead based assay that only gives signal when the beads are in close proximity to each other. When the tau monomer (target) is incubated it forms higher order aggregates (dimer, trimer, tetramer, etc) so that when the donor and acceptor beads bind to the epitope tags of tau they are in close proximity and generate signal.
Tau target (equal mixture of each construct at 300 nM) was prepared in buffer (Tris-HCl pH 7.4) and was incubated in 96-well plates at room temperature for 4 hours with vehicle control (DMSO) and a dose range of a compound of the disclosure (0.098 uM-50 uM). AlphaLisa acceptor heads & donor beads with ligands to the epitope tags (Perkin Elmer) were diluted (final 20 ug/mL per bead) in bead buffer (25 mM HEPES pH 7.4, 100 mM NaCl, 0.1% Tween-20), added to the wells and incubated 1 hour at room temperature. The positive control (non-incubated target) & blank (no tau) were prepared and mixed with beads in bead buffer and the plate was read immediately using the EnVision plate reader (Perkin Elmer).

[2] = biological target: T1, recombinant human tau 4R2N; assay: Confirmatory Assay (CONFA), SDS-PAGE quantification of tau monomer and oligomers; format: biochemical; conditions: tau target 300 nM, 3 hours room temperature, compound 0.098 uM-50 uM
Experimental: as §1
CONFA Assay: Confirmatory Assay (CONFA) used as a secondary screen for confirming the mechanism of action of compounds identified as hits using the ALA assay. The assay is performed using a similar procedure as ALA except that it utilizes SDS-PAGE for visualization and quantification of tau monomer and aggregated species (dimer, trimer, tetramer, pentamer, etc.). Only a single construct of tau without epitope tags is necessary, but the assay can use the same target prepared for the ALA assay also.
For the CONFA assay, Tau target (300 nM) was prepared in buffer (Tris-HCl pH 7.4) and was incubated at room temperature for 3 hours with vehicle control (DMSO) and a dose range of a compound of the disclosure (0.098 uM-50 uM). Samples were mixed with an equal volume of 2×SDS sample buffer (4% SDS, 20% glycerol, 0.004% bromphenol blue, 125 mM Tris HCl, pH 7.0) to resolve tau monomer and disulfide-linked oligomers on 4-20% gradient polyacrylamide gels (Biorad) along with positive control (non-oligomerized tau target). The gels were stained with Oriole Fluorescent Gel Stain (BioRad) and imaged using the FluorChem R system (Protein Simple). AlphaView software (Protein Simple) was used for quantification of tau monomer and oligomers.

[3] = tested on: insoluble tau aggregates in the brains of htau mice; assay: htau mouse study, insoluble tau in cortex (mAb DA31); format: in vivo
Experimental: (§2) Four groups of htau mice (n=25 per group) were treated from 2.5 to 6.5 months of age with 0, 10, 40 and 100 mg/kg of compound TO-0582 milled into feed. The study was performed independently and blinded. The primary endpoint of the study was reduction of insoluble tau aggregates in the brains of the mice with statistical significance. […] Methods for biochemical analyses of tau used in this study have been previously described (Acker C M et al. Sensitive quantitative assays for tau and phospho-tau in transgenic mouse models. Neurobiol Aging. 2013. 34:338). The results in FIG. 1 show in vivo efficacy of the compound in reducing tau pathology. Levels of insoluble tau in the cortices of htau mice treated with compound TO-0582 (example 21) were determined using the pan-tau monoclonal antibody (mAb) DA31. These values were normalized to total tau in the lysates of the cortex of each mouse. Error bars indicate standard error of the mean. The P values of comparisons of the groups treated with 10, 40 or 100 mg/kg TO-0582 to the control group (white bar, 0 mg/kg) are 0.0503 (horizontal hatch bar, 10 mg/kg), 0.0154 (diagonal hatch bar, 40 mg/kg) and 0.0488 (vertical hatch bar, 100 mg/kg). * indicates P value <0.05.

htau mice = assay: htau mouse study, tolerability; format: in vivo; conditions: all doses (10, 40, 100 mg/kg in feed)
Experimental: as §2

T1 sequence (P10636 other isoform, or with tags, fused parts or gaps): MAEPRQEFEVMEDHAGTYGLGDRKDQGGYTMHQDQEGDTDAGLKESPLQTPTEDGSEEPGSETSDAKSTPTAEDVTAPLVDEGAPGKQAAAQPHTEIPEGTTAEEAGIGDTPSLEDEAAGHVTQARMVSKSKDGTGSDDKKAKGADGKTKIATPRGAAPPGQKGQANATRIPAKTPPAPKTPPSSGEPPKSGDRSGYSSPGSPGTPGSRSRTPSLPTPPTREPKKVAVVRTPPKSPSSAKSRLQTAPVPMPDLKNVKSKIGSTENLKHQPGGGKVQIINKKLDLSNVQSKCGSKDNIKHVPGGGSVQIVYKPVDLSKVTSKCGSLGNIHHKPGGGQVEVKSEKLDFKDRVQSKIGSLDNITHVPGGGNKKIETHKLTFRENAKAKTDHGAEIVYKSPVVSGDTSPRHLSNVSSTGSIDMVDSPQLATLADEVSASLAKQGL

Row | Structure (SMILES) | IC50 [1] [µM] | IC50 [2] [µM] | other results
1 | O=c1c2ccccc2nc(-c2cccnc2)n1-c1ccc(Cl)c(O)c1 [Ex. 2, 3-(4-Chloro-3-hydroxyphenyl)-2-(pyridin-3-yl)quinazolin-4(3H)-one hydrochloride] | 5.78 | 31.9 | –
2 | O=c1c2ccccc2nc(-c2cccnc2)n1CCCCO [Ex. 3, 3-(4-Hydroxybutyl)-2-(pyridin-3-yl)quinazolin-4(3H)-one hydrochloride] | 9.93 | 8.94 | –
3 | O=c1[nH]c(-c2cccnc2)nc2cnccc12 [Ex. 6, 2-(Pyridin-3-yl)pyrido[3,4-d]pyrimidin-4(3H)-one dihydrochloride] | – | 59.2 | –
4 | O=c1[nH]c(-c2cccnc2)nc2ccsc12 [Ex. 15, 2-(pyridin-3-yl)thieno[3,2-d]pyrimidin-4(3H)-one] | 3.72 | 7.6 | –
5 | CCc1ccc(-n2c(-c3cccnc3)nc3ccccc3c2=O)cc1F [Ex. 17, 3-(3-Fluoro-4-ethylphenyl)-2-(pyridine-3-yl)quinazolin-4(3H)-one] | 24.1 | – | –
6 | CCc1ccc(-n2c(-c3cccnc3)nc3ccccc3c2=O)cc1Br [Ex. 18, 3-(3-Bromo-4-ethylphenyl)-2-(pyridine-3-yl)quinazolin-4(3H)-one] | 4.5 | – | –
7 | Cc1ccc(-n2c(-c3cccnc3)nc3ccccc3c2=O)cc1O [Ex. 20, 3-(4-Methyl-3-hydroxyphenyl)-2-(pyridin-3-yl)quinazolin-4(3H)-one hydrochloride] | 1.9 | 4.18 | –
8 | O=c1c2ccccc2nc(-c2cccnc2)n1-c1cccc(O)c1 [Ex. 21, 3-(3-Hydroxyphenyl)-2-(pyridin-3-yl)quinazolin-4(3H)-one hydrochloride] | 5.14 | 5.67 | reduction of insoluble tau, statistical significance ([3]; 40 mg/kg and 100 mg/kg doses, male htau mice): achieved with statistical significance; reduction of insoluble tau aggregates in the brains ([3]; htau mice, 10, 40 and 100 mg/kg milled into feed, 2.5 to 6.5 months of age, listed as TO-0582, hydrochloride): reduced insoluble tau at all doses; also recorded: achieved with statistical significance; tolerability over the course of the study (htau mice): well tolerated; toxic effects on weight, behavior or morbidity (htau mice): did not cause toxic effects

Continued, in another order:

Row | IC50 [1] [µM] | IC50 [2] [µM] | Structure (SMILES) | other results
9 | 7.8 | 3.19 | O=c1c2ccccc2nc(-c2cccnc2)n1-c1cccc(OCc2ccccc2)c1 [Ex. 4, 3-(3-(Benzyloxy)phenyl)-2-(pyridin-3-yl)quinazolin-4(3H)-one hydrochloride] | –
10 | 9.6 | 12.1 | CN1CC(C(=O)Nc2ccc(-c3nc4ccccc4c(=O)n3-c3cccnc3)cc2)C1 [Ex. 7, N-(4-(3,4-Dihydro-4-oxo-3-(pyridin-3-yl)quinazolin-2-yl)phenyl)-1-methylazetidine-3-carboxamide dihydrochloride] | –
11 | 6.89 | 62.4 | CN1CC(C(=O)Nc2ccc(-c3nc4ccsc4c(=O)[nH]3)cc2)C1 [Ex. 9, N-(4-(3,4-Dihydro-4-oxothieno[3,2-d]pyrimidin-2-yl)phenyl)-1-methyl azetidine-3-carboxamide hydrochloride] | –
12 | 26.3 | – | O=c1c2sccc2nc(-c2cccnc2)n1-c1cccnc1 [Ex. 10, 2,3-Di(pyridin-3-yl)thieno[3,2-d]pyrimidin-4(3H)-one] | –
13 | 17.1 | 57 | Cc1ccc(-n2c(-c3cccnc3)nc3ccsc3c2=O)cc1O [Ex. 11, 3-(3-Hydroxy-4-methylphenyl)-2-(pyridin-3-yl)thieno[3,2-d]pyrimidin-4(3H)-one] | –
14 | 13.6 | – | COc1ccc(-n2c(-c3ccc(NC(C)=O)cc3)nc3ccsc3c2=O)cn1 [Ex. 13, N-(4-(3,4-Dihydro-3-(6-methoxypyridin-3-yl)-4-oxothieno[3,2-d]pyrimidin-2-yl)phenyl)acetamide] | –
15 | 6.25 | 22.3 | COc1ccc(-n2c(-c3cccnc3)nc3ccsc3c2=O)cn1 [Ex. 14, 3-(6-Methoxypyridin-3-yl)-2-(pyridin-3-yl)thieno[3,2-d]pyrimidin-4(3H)-one dihydrochloride] | –
16 | 4.53 | 1.7 | CCc1ccc(-n2c(-c3ccc(NC(C)=O)cc3)nc3ccsc3c2=O)cc1O [Ex. 16, N-(4-(3-(4-ethyl-3-hydroxyphenyl)-4-oxo-3,4-dihydrothieno[3,2-d]pyrimidin-2-yl)phenyl)acetamide] | –
17 | 8.05 | – | CCc1ccc2cc(-n3c(-c4cccnc4)nc4ccccc4c3=O)ccc2c1 [Ex. 19, 3-(2-Ethylnaphthalen-6-yl)-2-(pyridine-3-yl)quinazolin-4(3H)-one] | –
